The text below walks through data of patent publication US11084824B2, “Pyrazolopyrimidine derivatives, preparation method thereof, and pharmaceutical composition for use in preventing or treating cancer, autoimmune disease and brain disease containing the same as an active ingredient” (Korea Research Institute of Chemical Technology, priority 2017, dated 2021).

As a reminder, the IC50 is the concentration that inhibits the measured activity by half. Low readings indicate greater potency, high ones weaker potency.

SMILES strings stand for the structures.

Bruton's tyrosine kinase (BTK), sequence (Q06187 whole entry): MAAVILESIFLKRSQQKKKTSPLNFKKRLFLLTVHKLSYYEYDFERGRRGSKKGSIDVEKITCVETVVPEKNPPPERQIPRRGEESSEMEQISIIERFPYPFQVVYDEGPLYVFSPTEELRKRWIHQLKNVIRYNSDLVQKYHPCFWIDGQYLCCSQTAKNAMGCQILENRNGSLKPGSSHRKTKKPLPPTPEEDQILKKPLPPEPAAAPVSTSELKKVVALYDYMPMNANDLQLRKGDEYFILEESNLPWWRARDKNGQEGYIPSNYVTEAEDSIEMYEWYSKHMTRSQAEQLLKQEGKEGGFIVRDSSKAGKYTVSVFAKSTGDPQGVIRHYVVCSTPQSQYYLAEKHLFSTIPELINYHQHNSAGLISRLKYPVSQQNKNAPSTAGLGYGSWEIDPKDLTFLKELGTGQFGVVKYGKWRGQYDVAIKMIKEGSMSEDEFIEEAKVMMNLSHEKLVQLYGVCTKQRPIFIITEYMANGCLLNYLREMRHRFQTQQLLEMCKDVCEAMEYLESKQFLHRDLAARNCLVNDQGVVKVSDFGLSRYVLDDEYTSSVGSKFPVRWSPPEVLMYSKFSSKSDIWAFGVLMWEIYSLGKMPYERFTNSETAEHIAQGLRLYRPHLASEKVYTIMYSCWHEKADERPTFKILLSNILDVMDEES

The first assay addresses Bruton's tyrosine kinase (BTK) (Homo sapiens (Human), UniProt Q06187). Put plainly: BTK enzyme inhibition assay (Cisbio HTRF kit). It counts as biochemical. The following applies: 30 minutes reaction, fluorescence 665 nm/620 nm. As to the method: BTK enzyme evaluation with each compound of examples of the invention was performed by using BTK enzyme inhibition diagnosis kit (Cisbio, Codolet, France). […] Then, EDTA (ethylenediaminetetraacetic acid) was added thereto in order to terminate the reaction. At this time, the EDTA solution contained curopium-containing antibody (antiphosphoresidue antibody) and straptavidin-XL665 (SA-XL665, Cisbio). After incubation for 1 hour, fluorescence was measured. The emission values of 665 nm and 620 nm excited at 337 nm were measured with Envision reader. IC50 values were determined using GraphPad prism (version 5). Herein, the curve indicates a nonlinear regression model, which was determined by logarithmic functions and reaction values.
Take `Cc1cccc(C)c1Nc1nn(C)c2nc(Nc3ccc4c(c3)C(C)NC(C)(C)C4)ncc12` (stereo not shown) [Example 55, N3-(2,6-dimethylphenyl)-1-methyl-N 6-(1,3,3-trimethyl-1,2,3,4-tetrahydroisoquinoline-7-yl)-1H-pyrazolo[3,4-d]pyrimidine-3,6-diamine]: the IC50 was 0.847 nM. The molecule `Cc1cccc(C)c1Nc1nn(C)c2nc(Nc3ccc4c(c3)C(C)(C)N(C)CC4)ncc12` [Example 59, N3-(2,6-dimethylphenyl)-1-methyl-N 6-(1,1,2-trimethyl-1,2,3,4-tetrahydroisoquinoline-7-yl)-1H-pyrazolo[3,4-d]pyrimidine-3,6-diamine] displayed an IC50 of 1.84 nM. For the molecule `Cc1ccc(NC(=O)c2cccc(C(F)(F)F)c2)cc1Nc1nn(C)c2nc(Nc3ccc4c(c3)C(C)N(C)CC4)ncc12` (stereo not shown) [Example 64, N-(3-((6-((1,2-dimethyl-1,2,3,4-tetrahydroisoquinolin-7-yl)amino)-1-methyl-1H-pyrazolo[3,4-d]pyrimidine-3-yl)amino)-4-methylphenyl)-3-(trifluoromethyl)benzamide], the IC50 amounted to 5.22 nM. In turn, `Cc1cccc(C)c1Nc1nn(C)c2nc(Nc3ccc4c(c3)CN(C(C)C)CC4)ncc12` [Example 21, N-(2,6-dimethylphenyl)-N^6 (2-isopropyl-1,2,3,4-tetrahydroisoquinoline-7-yl)-1-methyl-1H-pyrazolo[3,4-d]pyrimidine-3,6-diamine] had an IC50 of 0.2 nM. On the same count and under the same terms, next, `Cc1cccc(C)c1Nc1nn(C)c2nc(Nc3ccc4c(c3)CN(C(=O)C3CC3)CC4)ncc12` [Example 23, cyclopropyl(7-(3-(2,6-dimethylphenylamino)-1-methyl-1H-pyrazolo[3,4-d]pyrimidine-6-ylamino)-3,4-dihydroisoquinoline-2(1H)-yl)methanone]: 0.3 nM; `Cc1cccc(C)c1Nc1nn(C)c2nc(Nc3ccc(C4CCNCC4)cc3)ncc12` [Comparative Example 1, N^3-(2,6-dimethylphenyl)-1-methyl-N^6-(4-(piperidine-4-yl)phenyl)-1H-pyrazolo[3,4-d]pyrimidine-3,6-diamine, reference compound]: 10 nM; `CC(=O)N1CCC(c2ccc(Nc3ncc4c(Nc5c(C)cccc5C)nn(C)c4n3)cc2)CC1` [Comparative Example 2, 1-(4-(4-(3-(2,6-dimethylphenylamino)-1-methyl-1H-pyrazolo[3,4-d]pyrimidine-6-ylamino)phenyl)piperidine-1-yl)ethaneone, reference compound]: 20 nM.

The test system of the next assay is TMD8 cells. Put plainly: TMD8 cell growth inhibition (WST-1, 72 hours). It counts as cell-based. The following applies: Homo sapiens, TMD8 ABC type DLBCL cell line, WST-1, absorbance 450 nm. As to the method:
TDM-8 cells, the ABC (activated B-cell) type DLBCL (diffuse large B cell lymphoma) cell line sensitive to BTK signaling, were seeded in a 96-well plate at 30% confluency. Then, the compounds of the invention were treated thereto at different concentrations. 72 hours later, WST-1 reagent was added thereto. One hour later, absorbance was measured at 450 nm by using a spectramax spectrophotometer.
(Tetrazolium dyes change colour on reduction, which living cells bring about.)
Turning to `Cc1cccc(C)c1Nc1nn(C)c2nc(Nc3ccc4c(c3)C(C)NC(C)(C)C4)ncc12` (stereo not shown) [Example 55, N3-(2,6-dimethylphenyl)-1-methyl-N 6-(1,3,3-trimethyl-1,2,3,4-tetrahydroisoquinoline-7-yl)-1H-pyrazolo[3,4-d]pyrimidine-3,6-diamine], it took 16.8 nM to reach half-maximal inhibition (IC50). `Cc1cccc(C)c1Nc1nn(C)c2nc(Nc3ccc4c(c3)C(C)(C)N(C)CC4)ncc12` [Example 59, N3-(2,6-dimethylphenyl)-1-methyl-N 6-(1,1,2-trimethyl-1,2,3,4-tetrahydroisoquinoline-7-yl)-1H-pyrazolo[3,4-d]pyrimidine-3,6-diamine]: the IC50 is 9.27 nM. Still for that read-out and setting: next, `Cc1ccc(NC(=O)c2cccc(C(F)(F)F)c2)cc1Nc1nn(C)c2nc(Nc3ccc4c(c3)C(C)N(C)CC4)ncc12` (stereo not shown) [Example 64, N-(3-((6-((1,2-dimethyl-1,2,3,4-tetrahydroisoquinolin-7-yl)amino)-1-methyl-1H-pyrazolo[3,4-d]pyrimidine-3-yl)amino)-4-methylphenyl)-3-(trifluoromethyl)benzamide]: 10.1 nM; `Cc1ccc(C)c(Nc2nn(C)c3nc(Nc4ccc5c(c4)CNCC5)ncc23)c1` [Example 45, N^3-(2,5-dimethylphenyl)-1-methyl-N^6 (1,2,3,4-tetrahydroisoquinoline-7-yl)-1H-pyrazolo[3,4-d]pyrimidine-3,6-diamine]: 720 nM; `Cc1cccc(C)c1Nc1nn(C)c2nc(Nc3ccc4c(c3)CN(C(C)C)CC4)ncc12` [Example 21, N-(2,6-dimethylphenyl)-N^6 (2-isopropyl-1,2,3,4-tetrahydroisoquinoline-7-yl)-1-methyl-1H-pyrazolo[3,4-d]pyrimidine-3,6-diamine]: 139 nM. The same measure, in the same setting: the result for `Cc1cccc(C)c1Nc1nn(C)c2nc(Nc3ccc4c(c3)CN(C(=O)C3CC3)CC4)ncc12` [Example 23, cyclopropyl(7-(3-(2,6-dimethylphenylamino)-1-methyl-1H-pyrazolo[3,4-d]pyrimidine-6-ylamino)-3,4-dihydroisoquinoline-2(1H)-yl)methanone] reads 87.9 nM.

Molecule `Cc1cccc(C)c1Nc1nn(C(C)C)c2nc(Nc3ccc4c(c3)CNCC4)ncc12` [Example 27, N^3 (2,6-dimethylphenyl)-1-isopropyl-N6-(1,2,3,4-tetrahydroisoquinoline-7-yl)-1H-pyrazolo[3,4-d]pyrimidine-3,6-diamine] yielded an IC50 of 35.4 nM. Same read-out and setting: the result for `Cc1cccc(C)c1Nc1nn(C)c2nc(Nc3ccc4c(c3)CN(C)C4)ncc12` [Example 74, N3-(2,6-dimethylphenyl)-1-methyl-N 6-(2-methylisoindolin-5-yl)-1H-pyrazolo[3,4-d]pyrimidine-3,6-diamine] reads 358 nM. For `COCCOc1cc(C)c(Nc2nn(C)c3nc(Nc4ccc5c(c4)C(C(C)C)NCC5)ncc23)c(C)c1` (stereo not shown) [Example 78, N6-(1-isopropyl-1,2,3,4-tetrahydroisoquinoline-7-yl)-N 3-(4-(2-methoxyethoxy)-2,6-dimethylphenyl)-1-methyl-1H-pyrazolo[3,4-d]pyrimidine-3,6-diamine], inhibition was half-maximal at 26.2 nM (IC50). Same read-out and setting: next, `Cc1ccc(NC(=O)Nc2cccc(C(F)(F)F)c2)cc1Nc1nn(C)c2nc(Nc3ccc4c(c3)CNCC4)ncc12` [Example 57, 1-(4-methyl-3-((1-methyl-6-((1,2,3,4-tetrahydroisoquinoline-7-yl)amino)-1H-pyrazolo[3,4-d]pyrimidine-3-yl)amino)phenyl)-3-(3-(trifluoromethyl)phenyl)urea]: 221 nM. The same measure, in the same setting: next, `Cn1nc(Nc2c(F)cccc2F)c2cnc(Nc3ccc4c(c3)CNCC4)nc21` [Example 42, N^3-(2,6-difluorophenyl)-1-methyl-N^6-(1,2,3,4-tetrahydroisoquinoline-7-yl)-1H-pyrazolo[3,4-d]pyrimidine-3,6-diamine]: 397 nM; `Cc1cccc(C)c1Nc1nn(C)c2nc(Nc3ccc4c(c3)C(C)N(C)C(C)(C)C4)ncc12` (stereo not shown) [Example 67, N3-(2,6-dimethylphenyl)-1-methyl-N 6-(1,2,3,3-tetramethyl-1,2,3,4-tetrahydroisoquinoline-7-yl)-1H-pyrazolo[3,4-d]pyrimidine-3,6-diamine]: 23.6 nM; `Cc1ccc(C(=O)Nc2cccc(C(F)(F)F)c2)cc1Nc1nn(C)c2nc(Nc3ccc4c(c3)CNCC4)ncc12` [Example 52, 4-methyl-3-(1-methyl-6-(1,2,3,4-tetrahydroisoquinoline-7-ylamino)-1H-pyrazolo[3,4-d]pyrimidine-3-ylamino)-N-(3-(trifluoromethyl)phenyl)benzamide]: 83.2 nM. Molecule `Cc1cccc(C)c1Nc1nn(C)c2nc(Nc3ccc4c(c3)CN(C)C(C)(C)C4)ncc12` [Example 66, N3-(2,6-dimethylphenyl)-1-methyl-N 6-(2,3,3-trimethyl-1,2,3,4-tetrahydroisoquinoline-7-yl)-1H-pyrazolo[3,4-d]pyrimidine-3,6-diamine] registered an IC50 of 28.5 nM. On the same count and under the same terms, the result for `C=CC(=O)Nc1ccc(Nc2ncc3c(Nc4c(C)cccc4C)nn(C)c3n2)cc1` [Example 76, N-(4-((3-((2,6-dimethylphenyl)amino)-1-methyl-1H-pyrazolo[3,4-d]pyrimidine-6-yl)amino)phenyl)acrylamide] reads 75.2 nM; that for `Cc1cccc(C)c1Nc1nn(C)c2nc(Nc3ccc4c(c3)C(=O)NCC4)ncc12` [Example 77, 7-((3-((2,6-dimethylphenyl)amino)-1-methyl-1H-pyrazolo[3,4-d]pyrimidine-6-yl)amino)-3,4-dihydroisoquinoline-1(2H)-one], 146 nM.

Turning to `CC(=O)N1Cc2ccc(Nc3ncc4c(Nc5c(C)cccc5C)nn(C)c4n3)cc2C1` [Example 72, 1-(5-((3-((2,6-dimethylphenyl)amino)-1-methyl-1H-pyrazolo[3,4-d]pyrimidine-6-yl)amino)isoindolin-2-yl)ethane-1-one], the IC50 stood at 266 nM. The molecule `CC(=O)N1CCc2ccc(Nc3ncc4c(Nc5c(C)cccc5C)nn(C)c4n3)cc2C1C(C)C` (stereo not shown) [Example 70, 1-(7-((3-((2,6-dimethylphenyl)amino)-1-methyl-1H-pyrazolo[3,4-d]pyrimidine-6-yl)amino)-1-isopropyl-3,4-dihydroisoquinoline-2(1H)-yl) ethane-1-one] had an IC50 of 24.5 nM.

In turn, `CC(=O)N1Cc2cc(Nc3ncc4c(Nc5c(C)cccc5C)nn(C)c4n3)ccc2C(C)(C)C1` [Example 68, 1-(7-((3-((2,6-dimethylphenyl)amino)-1-methyl-1H-pyrazolo[3,4-d]pyrimidine-6-yl)amino)-4,4-dimethyl-3,4-dihydroisoquinoline-2(1H)-yl)ethane-1-one] came in with an IC50 of 121 nM. `COCCOc1cc(C)c(Nc2nn(C)c3nc(Nc4ccc5c(c4)C(C)(C)NCC5)ncc23)c(C)c1` [Example 79, N6-(1,1-dimethyl-1,2,3,4-tetrahydroisoquinoline-7-yl)-N 3-(4-(2-methoxyethoxy)-2,6-dimethylphenyl)-1-methyl-1H-pyrazolo[3,4-d]pyrimidine-3,6-diamine] gave an IC50 of 13 nM.

In turn, `Cc1cc(C)c(Cl)c(Nc2nn(C)c3nc(Nc4ccc5c(c4)CNCC5)ncc23)c1` [Example 38, N^3-(2-chloro-3,5-dimethylphenyl)-1-methyl-N^6-(1,2,3,4-tetrahydroisoquinoline-7-yl)-1H-pyrazolo[3,4-d]pyrimidine-3,6-diamine] gave an IC50 of 832 nM.

In turn, `Cc1cccc(C)c1Nc1nn(C)c2nc(Nc3ccc4c(c3)CCCC4)ncc12` [Example 75, N3-(2,6-dimethylphenyl)-1-methyl-N 6-(5,6,7,8-tetrahydronaphthalen-2-yl)-1H-pyrazolo[3,4-d]pyrimidine-3,6-diamine] had an IC50 of 667 nM. Still for that read-out and setting: next, `Cc1cccc(C)c1Nc1n[nH]c2nc(Nc3ccc4c(c3)CNCC4)ncc12` [Example 19, N3-(2,6-dimethylphenyl)-N6-(1,2,3,4-tetrahydroisoquinoline-7-yl)-1H-pyrazolo[3,4-d]pyrimidine-3,6-diamine]: 49.4 nM; `CC(=O)N1Cc2cc(Nc3ncc4c(Nc5c(C)cccc5C)nn(C)c4n3)ccc2CC1(C)C` [Example 71, 1-(7-((3-((2,6-dimethylphenyl)amino)-1-methyl-1H-pyrazolo[3,4-d]pyrimidine-6-yl)amino)-3,3-dimethyl-3,4-dihydroisoquinoline-2(1H)-yl)ethane-1-one]: 114 nM.
